# Where a name gives a salt, the structure may show the parent alone. Read-outs that look alike come from different tables or passages of the source.
# System: iCell cardiomyocytes (human iPSC-derived cardiomyocytes)
# Assay: Intracellular Ca2+ flux / beating parameters in iCell cardiomyocytes (FLIPR tetra), 90 min or 24 h
# Format: cell-based
# Settings: Homo sapiens, Cardiomyocyte, 0.00 µM = 100.00; for activity at 0.1 µM: 0.10 µM
# Outline: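 Gelatin-plated iCell cardiomyocytes (5,000/well) were dye-loaded for 2 h at 37 °C, then exposed for 90 min or 24 h to PCBs/metabolites (5× plates at 0.05–500 µM; 0.5% DMSO final) in triplicate. Ca2+ flux was read for 100 s at 8 Hz and 37 °C. Peak height, frequency, spacing CV and decay/rise ratio were vehicle-normalized and fitted with a four-parameter logistic model, with POD set at 1 SD of vehicle.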
# [1] = 1.5 h, read-out: cm.amp.avg.90min
# [2] = 1.5 h, read-out: cm.amp.cv.90min
# [3] = 1.5 h, read-out: cm.decay.rise.90min
# [4] = 1.5 h, read-out: cm.spacing.cv.90min
# [5] = 24 h, read-out: cm.amp.avg.24hrs
# [6] = 24 h, read-out: cm.amp.cv.24hrs
# [7] = 24 h, read-out: cm.decay.rise.24hrs
# [8] = 24 h, read-out: cm.spacing.cv.24hrs
compound,measurement,setting,value
O=S(=O)(O)Oc1ccc(-c2cccc(Cl)c2)cc1Cl [4-yl PCB 11 sulfate],activity at 0.01 µM,[1],98.2%
same,activity at 0.01 µM,[2],88.2%
same,activity at 0.01 µM,"1.5 h, read-out: cm.bpm.90min",97.8%
same,activity at 0.01 µM,[3],98.1%
same,activity at 0.01 µM,[4],99.6%
same,activity at 0.1 µM,[1],93.1%
same,activity at 0.1 µM,[2],97.2%
same,activity at 0.1 µM,"1.5 h, read-out: cm.bpm.90min",100%
same,activity at 0.1 µM,[3],102%
same,activity at 0.1 µM,[4],99%
same,activity at 1 µM,[1],99.5%
same,activity at 1 µM,[2],116%
same,activity at 1 µM,"1.5 h, read-out: cm.bpm.90min",99.1%
same,activity at 1 µM,[3],99.7%
same,activity at 1 µM,[4],103%
same,activity at 10 µM,[1],96.9%
same,activity at 10 µM,[2],93.4%
same,activity at 10 µM,"1.5 h, read-out: cm.bpm.90min",99.1%
same,activity at 10 µM,[3],98.1%
same,activity at 10 µM,[4],96.5%
same,activity at 100 µM,[1],45.7%
same,activity at 100 µM,[2],62.5%
same,activity at 100 µM,"1.5 h, read-out: cm.bpm.90min",15.1%
same,activity at 100 µM,[3],39.8%
same,activity at 100 µM,[4],107%
same,activity at 0.01 µM,[5],98.1%
same,activity at 0.01 µM,[6],94.2%
same,activity at 0.01 µM,"24 h, read-out: cm.bpm.24hrs",97.4%
same,activity at 0.01 µM,[7],110%
same,activity at 0.01 µM,[8],104%
same,activity at 0.1 µM,[5],78.9%
same,activity at 0.1 µM,[6],34.3%
same,activity at 0.1 µM,"24 h, read-out: cm.bpm.24hrs",46.8%
same,activity at 0.1 µM,[7],51.8%
same,activity at 0.1 µM,[8],46.3%
same,activity at 1 µM,[5],88.9%
same,activity at 1 µM,[6],119%
same,activity at 1 µM,"24 h, read-out: cm.bpm.24hrs",93.6%
same,activity at 1 µM,[7],100%
same,activity at 1 µM,[8],87.1%
same,activity at 10 µM,[5],88.7%
same,activity at 10 µM,[6],119%
same,activity at 10 µM,"24 h, read-out: cm.bpm.24hrs",93.6%
same,activity at 10 µM,[7],104%
same,activity at 10 µM,[8],98.9%
same,activity at 100 µM,[5],0%
same,activity at 100 µM,[6],0%
same,activity at 100 µM,"24 h, read-out: cm.bpm.24hrs",0%
same,activity at 100 µM,[7],0%
same,activity at 100 µM,[8],0%

# Source: publication PMC7377239, “Cardiovascular Effects of Polychlorinated Biphenyls and Their Major Metabolites” (Environmental Health Perspectives, 2020)
